In patent publication US7939534B2, “Certain chemical entities, compositions, and methods” (Cytokinetics, Inc., priority 2006, dated 2011) one finds IC50 data, which are given here for 31 molecules.

For this experiment, the target named is T1, chicken gizzard smooth muscle myosin subfragment-1 chemically crosslinked to either cardiac or skeletal actin (Gallus gallus, UniProt P10587).
T1 construct: chicken gizzard smooth muscle myosin subfragment-1; from tissue; host or cells: chicken gizzard
The experiment in a line: Dose dependent smooth muscle myosin ATPase modulation (pyruvate kinase/horseradish peroxidase/pyruvate oxidase-coupled ATPase assay). Format: biochemical. The following applies: read-out: IC50 Arithmetic Mean. The method in brief: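 Chicken gizzard smooth muscle myosin S1 crosslinked (EDC/NHS) to cardiac or skeletal actin, concentration titrated to a set ATPase rate. Pyruvate kinase/pyruvate oxidase/HRP-coupled assay, 0.15 mM ATP, 12 mM K-PIPES pH 7.00, 100 mM KCl, amplex red fluorescence; IC50 from 4-parameter fit.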
On to “N-[((2R)-1-{4-[(tert-butoxy)carbonylamino]butanoyl}pyrrolidin-2-yl)methyl](5-fluoro-2-{[2-(3-fluorophenyl)ethyl]amino}-6-pyrrolidinyl(3-pyridyl))carboxamide [Compound 75]”, for which the IC50 stood at 8.55 µM.

`CC(=O)N1CCN(c2ccc(C(=O)NCc3cccnc3)c(NCCc3cccc(F)c3)n2)CC1` [Compound 123, (6-(4-acetylpiperazinyl)-2-{[2-(3-fluorophenyl)ethyl]amino}(3-pyridyl))-N-(3-pyridylmethyl)carboxamide]: the IC50 stood at 8.57 µM.

For `NCc1cccc(CNC(=O)c2ccc(N3CC[C@@H](O)C3)nc2NCCc2cccc(F)c2)n1` [Compound 103, (6-((3R)-3-hydroxypyrrolidinyl)-2-{[2-(3-fluorophenyl)ethyl]amino}(3-pyridyl))-N-{[6-(aminomethyl)(2-pyridyl)]methyl}carboxamide], the IC50 worked out at 2.22 µM.

In the case of `N[C@@H]1CCN(c2ccc(C(=O)NCc3cccnc3)c(NCCc3cccc(F)c3)n2)C1` [Compound 46, (6-((3R)-3-aminopyrrolidinyl)-2-{[2-(3-fluorophenyl)ethyl]amino}(3-pyridyl))-N-(3-pyridylmethyl)carboxamide], the IC50 was 35.5 µM.

`CC(C)(C)OC(=O)NC1CCN(c2ccc(C(=O)NCc3cccnc3)c(NCCc3cccc(F)c3)n2)CC1` [Compound 110, (tert-butoxy)-N-[1-(6-{[2-(3-fluorophenyl)ethyl]amino}-5-[N-(3-pyridylmethyl)carbamoyl](2-pyridyl))(4-piperidyl)]carboxamide]: the IC50 was determined as 16.4 µM.

As for `CC(C)(C)OC(=O)NCc1ncccc1CNC(=O)c1cc(F)c(N2CC[C@@H](F)C2)nc1NCCc1cccc(F)c1` [Compound 65, (6-((3R)-3-fluoropyrrolidinyl)-5-fluoro-2-{[2-(3-fluorophenyl)ethyl]amino}(3-pyridyl))-N-[(2-{[(tert-butoxy)carbonylamino]methyl}(3-pyridyl))methyl]carboxamide], the IC50 was 8.24 µM.

For `O=C(NCc1cccnc1)c1ccc(N2CCC(CO)CC2)nc1NCCc1cccc(F)c1` [Compound 19, (2-{[2-(3-fluorophenyl)ethyl]amino}-6-[4-(hydroxymethyl)piperidyl](3-pyridyl))-N-(3-pyridylmethyl)carboxamide], the IC50 was 0.382 µM.

`O=C(NCc1cccnc1)c1ccc(C2=CCCC2)nc1NCCc1cccc(F)c1` [Compound 62, (6-cyclopent-1-enyl-2-{[2-(3-fluorophenyl)ethyl]amino}(3-pyridyl))-N-(3-pyridylmethyl)carboxamide]: the IC50 worked out at 0.637 µM.

`CC(=O)N1CC=C(c2ccc(C(=O)NCc3cccnc3)c(NCCc3cccc(F)c3)n2)CC1` [Compound 56, (6-(1-acetyl(4-1,2,5,6-tetrahydropyridyl))-2-{[2-(3-fluorophenyl)ethyl]amino}(3-pyridyl))-N-(3-pyridylmethyl)carboxamide]: the 50% inhibitory concentration (IC50) worked out at 0.43 µM.

Take `COC(=O)N[C@@H]1CCN(c2ccc(C(=O)NCc3cccnc3)c(NCCc3cccc(F)c3)n2)C1` [Compound 44, N-[(3R)-1-(6-{[2-(3-fluorophenyl)ethyl]amino}-5-[N-(3-pyridylmethyl)carbamoyl](2-pyridyl))pyrrolidin-3-yl]methoxycarboxamide]: the IC50 worked out at 4.5 µM.

For `NCc1cccc(CNC(=O)c2ccc(N3CC[C@H](O)C3)nc2NCCc2cccc(F)c2)n1` [Compound 102, (6-((3S)-3-hydroxypyrrolidinyl)-2-{[2-(3-fluorophenyl)ethyl]amino}(3-pyridyl))-N-{[6-(aminomethyl)(2-pyridyl)]methyl}carboxamide], the IC50 came to 3.07 µM.

Take `CNC(=O)CNC(=O)c1ccc(N2CC[C@H](O)C2)nc1NCCc1cccc(F)c1` [Compound 89, 2-[(6-((3S)-3-hydroxypyrrolidinyl)-2-{[2-(3-fluorophenyl)ethyl]amino}(3-pyridyl))carbonylamino]-N-methylacetamide]: the IC50 was 8.25 µM.

With `NC(=O)CCNC(=O)c1ccc(N2CC[C@@H](O)C2)nc1NCCc1cccc(F)c1` [Compound 17, (6-((3R)-3-hydroxypyrrolidinyl)-2-{[2-(3-fluorophenyl)ethyl]amino}(3-pyridyl))-N-(2-carbamoylethyl)carboxamide], the IC50 was determined as 15.9 µM.

With `COC(=O)N1CCN=C1c1ccc(C(=O)NCc2cccnc2)c(NCCc2cccc(F)c2)n1` [Compound 50, methyl 2-(6-{[2-(3-fluorophenyl)ethyl]amino}-5-[N-(3-pyridylmethyl)carbamoyl]-2-pyridyl)-2-imidazolinecarboxylate], the IC50 worked out at 21.2 µM.

Turning to `CC(C)(C)OC(=O)NCC1CCN(c2ccc(C(=O)NCc3cccnc3)c(NCCc3cccc(F)c3)n2)CC1` [Compound 109, (tert-butoxy)-N-{[1-(6-{[2-(3-fluorophenyl)ethyl]amino}-5-[N-(3-pyridylmethyl)carbamoyl](2-pyridyl))(4-piperidyl)]methyl}carboxamide], the IC50 is 4.56 µM.

For `CC(=O)NC[C@@H]1CCN(c2ccc(C(=O)NCc3cccnc3)c(NCCc3cccc(F)c3)n2)C1` [Compound 1, N-{[(3S)-1-(6-{[2-(3-fluorophenyl)ethyl]amino}-5-[N-(3-pyridylmethyl)carbamoyl](2-pyridyl))pyrrolidin-3-yl]methyl}acetamide], the IC50 is 3.77 µM.

Regarding `CC(C)(C)OC(=O)N1CC=C(c2ccc(C(=O)NCc3cccnc3)c(NCCc3cccc(F)c3)n2)CC1` [Compound 58, tert-butyl 4-(6-{[2-(3-fluorophenyl)ethyl]amino}-5-[N-(3-pyridylmethyl)carbamoyl]-2-pyridyl)-1,2,5,6-tetrahydropyridinecarboxylate], the IC50 came to 2.15 µM.

On to `CC(=O)N(C)C[C@@H]1CCN(c2ccc(C(=O)NCc3cccnc3)c(NCCc3cccc(F)c3)n2)C1` [Compound 8, N-{[(3R)-1-(6-{[2-(3-fluorophenyl)ethyl]amino}-5-[N-(3-pyridylmethyl)carbamoyl](2-pyridyl))pyrrolidin-3-yl]methyl}-N-methylacetamide], for which the IC50 stood at 47.6 µM.

Turning to `O=C(NCc1cccnc1)c1ccc(N2CC[C@H](O)C2)nc1NCCc1cccc(F)c1` [Compound 18, (6-((3S)-3-hydroxypyrrolidinyl)-2-{[2-(3-fluorophenyl)ethyl]amino}(3-pyridyl))-N-(3-pyridylmethyl)carboxamide], the half-inhibitory concentration (IC50) was 1.02 µM.

As to `O=C(NCc1cccnc1)c1ccc(N2CCNCC2=O)nc1NCCc1cccc(F)c1` [Compound 25, (2-{[2-(3-fluorophenyl)ethyl]amino}-6-(2-oxopiperazinyl)(3-pyridyl))-N-(3-pyridylmethyl)carboxamide], the IC50 amounted to 70.8 µM.

Consider `O=C(NCc1cccnc1)c1ccc(N2CCCCC2)nc1NCCc1cccc(F)c1` [Compound 0, (2-{[2-(3-fluorophenyl)ethyl]amino}-6-piperidyl(3-pyridyl))-N-(3-pyridylmethyl)carboxamide], for which the IC50 stood at 0.371 µM.

As for `O=C(NCc1cccnc1)c1ccc(N2CCCCC2)nc1NCCc1ccccn1` [Compound 45, {6-piperidyl-2-[(2-(2-pyridyl)ethyl)amino](3-pyridyl)}-N-(3-pyridylmethyl)carboxamide], the IC50 was 13.2 µM.

`O=C(NCc1cccnc1)c1cc(Br)c(N2CCCC2)nc1NCCc1cccc(F)c1` [Compound 70, (5-bromo-2-{[2-(3-fluorophenyl)ethyl]amino}-6-pyrrolidinyl(3-pyridyl))-N-(3-pyridylmethyl)carboxamide]: the IC50 is 0.295 µM.

With `NCc1ncccc1CNC(=O)c1ccc(N2CCCCC2)nc1NCCc1cccc(F)c1` [Compound 40, N-{[2-(aminomethyl)(3-pyridyl)]methyl}(2-{[2-(3-fluorophenyl)ethyl]amino}-6-piperidyl(3-pyridyl))carboxamide], the IC50 came out at 0.0656 µM.

`CNC[C@@H]1CCN(c2ccc(C(=O)NCc3cccnc3)c(NCCc3cccc(F)c3)n2)C1` [Compound 7, (6-{(3S)-3-[(methylamino)methyl]pyrrolidinyl}-2-{[2-(3-fluorophenyl)ethyl]amino}(3-pyridyl))-N-(3-pyridylmethyl)carboxamide]: the IC50 stood at 64.8 µM.

On to `COC[C@@H]1CCCN1c1ccc(C(=O)NCc2cccnc2)c(NCCc2cccc(F)c2)n1` [Compound 108, (6-[(2S)-2-(methoxymethyl)pyrrolidinyl]-2-{[2-(3-fluorophenyl)ethyl]amino}(3-pyridyl))-N-(3-pyridylmethyl)carboxamide], for which the 50% inhibitory concentration (IC50) was 67.3 µM.

With `O=C(NCc1cccnc1)c1ccc(N2CCCC(O)C2)nc1NCCc1cccc(F)c1` (stereo in doubt) [Compound 117, (6-((3S)-3-hydroxypiperidyl)-2-{[2-(3-fluorophenyl)ethyl]amino}(3-pyridyl))-N-(3-pyridylmethyl)carboxamide], the IC50 came out at 0.515 µM.

Turning to `NCC1CCN(c2ccc(C(=O)NCc3cccnc3)c(NCCc3cccc(F)c3)n2)CC1` [Compound 105, (6-[4-(aminomethyl)piperidyl]-2-{[2-(3-fluorophenyl)ethyl]amino}(3-pyridyl))-N-(3-pyridylmethyl)carboxamide], the IC50 was 39.1 µM.

Turning to `NC1CCN(c2ccc(C(=O)NCc3cccnc3)c(NCCc3cccc(F)c3)n2)C1` (stereo not shown) [Compound 86, (6-(3-aminopyrrolidinyl)-2-{[2-(3-fluorophenyl)ethyl]amino}(3-pyridyl))-N-(3-pyridylmethyl)carboxamide], the IC50 is 23.1 µM.

`O=C(O)CC1CCN(c2ccc(C(=O)NCc3cccnc3)c(NCCc3cccc(F)c3)n2)C1` (stereo not shown) [Compound 95, 2-[1-(6-{[2-(3-fluorophenyl)ethyl]amino}-5-[N-(3-pyridylmethyl)carbamoyl]-2-pyridyl)pyrrolidin-3-yl]acetic acid]: the IC50 turned out to be 5.6 µM.

Regarding `N#CN1CCN=C1c1ccc(C(=O)NCc2cccnc2)c(NCCc2cccc(F)c2)n1` [Compound 51, (6-(1-cyano(2-imidazolin-2-yl))-2-{[2-(3-fluorophenyl)ethyl]amino}(3-pyridyl))-N-(3-pyridylmethyl)carboxamide], the half-maximal inhibitory concentration (IC50) was found to be 0.435 µM.

The term IC50 denotes the concentration needed to halve the response being measured.
